Assay results as given in patent publication US20220031680A1, “Donecopride As Neuroprotective Agent In the Treatment of Neurodegenerative Diseases” (priority 2018, published 2022).

Test system: C57Bl6/J mice challenged with an intracerebroventricular injection of Aβ1-42 oligomers (AβO)
Test: Novel Object Recognition assay in mice icv injected with AβO
Format: in vivo, mouse
Conditions: for mean discrimination index (NOR): day +16; for AβO-induced impairment of recognition memory (NOR): at all doses (1, 3, 9 mg/kg/day po)
Procedure: Briefly, 144 C57Bl6/J male mice (3 months of age) were received and housed (4 to 5 per cage) in quarantine during 7 days, or longer. Test items were dosed per os (through oral gavage) once daily at different concentrations from day −1 to day +17.
At days +15/+16, recognition memory was investigated using the Novel Object recognition test (NOR).
The different experimental groups are defined as follow: • GROUP A (vehicle CTRL): po vehicle AND icv injection of vehicle (n=12) • GROUP B (APO CTRL): po vehicle AND icv injection of AβO (n=12) • GROUP C (positive CTRL): po Donepezil subchronic AND icv injection of AβO (n=12) • GROUP D (Donecopride CTRL): po Donecopride (9 mg/kg) AND icv injection of vehicle (n=12) • GROUP E (Flucopride CTRL): po Flucopride (9 mg/kg) AND icv injection of vehicle (n=12) • GROUP F (Donecopride Treated): po Donecopride (1 mg/kg) AND icv injection of AβO (n=12) • GROUP G (Donecopride Treated): po Donecopride (3 mg/kg) AND icv injection of AβO (n=12) • GROUP H (Donecopride Treated): po Donecopride (9 mg/kg) AND icv injection of AβO (n=12) • GROUP I (Fluocopride Treated): po Flucopride (1 mg/kg) AND icv injection of AβO (n=12) • GROUP J (Flucopride Treated): po Flucopride (3 mg/kg) AND icv injection of AβO (n=12) • GROUP K (Flucopride Treated): po Flucopride (9 mg/kg) AND icv injection of AβO (n=12) • GROUP L (positive CTRL): ip Donepezil acute on test days AND icv injection of AβO (n=12)
For per os dosing, Donecopride and Flucopride were formulated by solubilization in 0.9% NaCl. Compound dosing (total volume of 200 μL) started one day before induction of the disease (through icv injection of AβO) and was done for 19 consecutive days.
Single intra-cerebroventricular injection of 144 mice with vehicle or APO (max. 24 mice per day, all mice randomized): under anesthesia (ip injection of a mixture of ketamine/xylasine at a dose of 110 and 15 mg/kg, respectively) AβO (1 μL), or vehicle (1 μL) were injected into the right lateral ventricle. Injections were made using 10 μL Hamilton micro syringes fitted with a 26-gauge needle. The procedure was terminated by a subcutaneous injection of metacam (analgesia) at a dose of 5 mg/kg. Animals were then placed individually in their home-cage and the cage was placed in a heated cabinet until the animal has fully recovered. Animals were carefully monitored to control recovery after anesthesia.
Preparation of APO: Aβ1-42 was obtained from Bachem (ref H1368) (batch number: 1052301). The preparation of stable Aβ1-42 oligomers was performed as described in Garcia et al. (2010) J. Neurosci. 30:7516-7527. The oligomeric preparation (identified as Batch #2016-14) contained a mixture of stable trimers and tetramers of Aβ1-42, as well as monomeric forms of the peptide. All oligomer preparations used were previously characterized in terms of oligomer composition and in vitro neurotoxicity.
6 independent trials involving each 24 mice (i.e. 2 mice from each experimental group) for a total of 144 mice at day +4—Behavioral tests were performed 1 h after dosing.
Detailed protocol: One day before the cognitive test (i.e. at day +15), mice are habituated during a 10 minutes' trial during which they are placed in an empty open field. The day of the cognitive test (i.e. day +16), animals are placed in the same open field and are allowed to explore freely two identical objects for a trial of five minutes (acquisition trial). Then the animals are returned in their home-cage for an inter-trial time of five minutes. During the retention trial, animals are allowed to explore two different objects: one familiar and one novel object. During this time, the experimenter, blind to the treatment, record the time the mouse is actively exploring each object. All trials are video recorded (Smart v3.0 software, Bioseb). A discrimination index is then generated: Discrimination index=(time exploring novel object−time exploring familiar object)/total exploration time. […]

Compound | mean discrimination index (NOR) (ip acute on test day, icv AβO (Group L)) | mean discrimination index (NOR) (po sub-chronic, icv AβO (Group C)) | mean discrimination index (NOR) (3 mg/kg/day po, icv AβO) | mean discrimination index (NOR) (9 mg/kg/day po, icv vehicle) | AβO-induced impairment of recognition memory (NOR) (icv AβO) | mean discrimination index (NOR) (9 mg/kg/day po, icv AβO)
COc1cc2c(cc1OC)C(=O)C(CC1CCN(Cc3ccccc3)CC1)C2 (centres unmarked) [Donepezil, reference compound] | 0.30±0.07 | 0.29±0.09 |  |  |  | 
COc1cc(N)c(F)cc1C(=O)CCC1CCN(CC2CCCCC2)CC1 [Flucopride] |  |  | 0.46±0.05 | 0.36±0.06 | dose-dependent inhibition (bell-shaped curve) | 
COc1cc(N)c(Cl)cc1C(=O)CCC1CCN(CC2CCCCC2)CC1 [Donecopride] |  |  |  | 0.29±0.04 | dose-dependent inhibition | 0.43±0.06
